Assays:
HIV-1 = conditions: previously identified; cited from earlier work
HIV-1IIIB = assay: Inhibition of HIV-1 IIIB replication in MT-2 cells, p24 production by ELISA; type: cell-based; conditions: for fold more potent than 12 and 13: replication of HIV-1 IIIB and 94UG103, relative to 12 and 13

## Cc1ccc(C)n1-c1ccc(C(=O)O)c(O)c1 [compound 12, N-(4-carboxy-3-hydroxy)phenyl-2,5-dimethylpyrrole]
HIV-1
  inhibit HIV-1 infection: low μM level

## O=C(O)c1cc(-c2ccc(/C=C3\SC(=S)N(CCc4ccccc4)C3=O)o2)ccc1Cl [11d, 2-Chloro-5-{5-[4-oxo-3-phenethyl-2-thioxothiazolidin-5-ylidenemethyl]furan-2-yl}-benzoic acid]
HIV-1IIIB; relative to 13
  fold greater potency than 13: ~ 25 fold
HIV-1IIIB
  fold more potent than 12 and 13: more than 20 fold

## Cc1ccc(-c2ccc(/C=C3\SC(=S)N(CCc4ccccc4)C3=O)o2)cc1C(=O)O [11b, 2-Methyl-5-{5-[4-oxo-3-phenethyl-2-thioxothiazolidin-5-ylidenemethyl]furan-2-yl}-benzoic acid]
HIV-1IIIB
  fold more potent than 12 and 13: more than 20 fold

## O=C(O)c1cccc(-c2ccc(/C=C3\SC(=S)N(CCc4ccccc4)C3=O)o2)c1 [11a, 3-{5-[4-Oxo-3-phenethyl-2-thioxothiazolidin-5-ylidenemethyl]furan-2-yl}-benzoic acid]
HIV-1IIIB
  fold more potent than 12 and 13: more than 20 fold

## O=C(O)c1cc(-c2ccc(/C=C3\SC(=S)N(CCc4ccccc4)C3=O)o2)ccc1Br [11i, 2-Bromo-5-{5-[4-oxo-3-phenethyl-2-thioxothiazolidin-5-ylidenemethyl]furan-2-yl}-benzoic acid]
HIV-1IIIB; relative to unsubstituted 11a
  fold reduction of anti-HIV-1 activity: ~ 7 fold

## O=C(O)c1cc(-n2cccc2)ccc1Cl [compound 13, N-(3-carboxy-4-chloro) phenylpyrrole]
HIV-1
  inhibit HIV-1 infection: low μM level

From publication PMC2802534 (Journal of medicinal chemistry, 2009)
